Experiments:
[1] = system: Smad2/Smad3 phosphorylation; assay: Phospho-Smad2/3 Inhibition Assay (western blot), Panc-1; format: cell-based, human; conditions: at 10 μM, Panc-1 pancreatic cancer cell line; starred symbols = activation
Method in brief: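 Western blotting of lysates (15-50 μg protein) read phosphorylation of Smad2 Ser465/467 and Smad3 Ser423/425. Before lysis, Panc-1 cells got 1 h of 10 ng/ml TGF-b1 following 3 h compound exposure at 37° C (10 μM final, or serial dilutions for IC50, 0.3% DMSO) after overnight 0.5% FBS starvation.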

Erk1/2 phosphorylation = assay: Erk1/2 Phosphorylation Assay (western blot), Panc-1; format: cell-based, human; conditions: at 10 μM, * = activation
Method in brief: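 Phospho-Erk1/2 (Thr202/Tyr204) was detected by western blot in lysates of Panc-1 cells (KRas G12D). These had 6 h, 37° C exposure to 10 μM compound or a dilution series for IC50, in 0.3% DMSO. Cells were either starved overnight in 0.5% FBS with a 15-min 1.5 ng/ml EGF pulse, or kept unstimulated in 10% FBS.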

IL6 = assay: IL-6 Quantification Assay (ELISA), LPS-stimulated RAW 264.7; format: cell-based; design: inhibition: dose or concentration left out as unconfirmed; conditions: Mus musculus, RAW264.7, read-out: IL-6: % inh.
TNF-alpha = TNF-alpha Quantification Assay (ELISA), LPS-stimulated RAW 264.7; format: cell-based; conditions: Mus musculus, RAW264.7; at 10 μM; read-out: TNFα: % inh.

Structure (SMILES)	% inh of Smad2/3 phosphorylation in Panc-1 [1]	% inh of Erk1/2 phosphorylation in Panc-1 (Erk1/2 phosphorylation)	inhibition (IL6) [%]	inhibition at 10 µM (TNF-alpha) [%]	inhibition at 10 µM (IL6; at 10 μM) [%]
COc1cccc(-c2cn3nc(-c4nccn4C)nc(N[C@H]4C[C@@H](OC)C4)c3c2-c2ccccc2)c1Cl [Compound 31, 6-(2-Chloro-3-methoxyphenyl)-N-((1s,3s)-3-methoxycyclobutyl)-2-(1-methyl-1H-imidazol-2-yl)-5-phenylpyrrolo[2,1-f][1,2,4]triazin-4-amine]	D (D = 76-100% inhibition)	D (85-100% inhibition)	75 to 100	75 to 100	
COc1cccc(-c2cn3nc(-c4nccn4C)nc(N[C@H]4C[C@H](OC)C4)c3c2-c2ccccc2)c1Cl [Compound 32, 6-(2-Chloro-3-methoxyphenyl)-N-((1r,3r)-3-methoxycyclobutyl)-2-(1-methyl-1H-imidazol-2-yl)-5-phenylpyrrolo[2,1-f][1,2,4]triazin-4-amine]	D (D = 76-100% inhibition)	D (85-100% inhibition)	75 to 100	75 to 100	
COCCNc1nc(-c2nccn2C)nn2cc(-c3ccn(C(C)C)n3)c(C(C)C)c12 [Compound 35, 5-Isopropyl-6-(1-isopropyl-1H-pyrazol-3-yl)-N-(2-methoxyethyl)-2-(1-methyl-1H-imidazol-2-yl)pyrrolo[2,1-f][1,2,4]triazin-4-amine]	A (A = 1-25% inhibition)	0 (0% inhibition)	25 to 49	0	
COc1cccc(Nc2nc(-c3nccn3C)nn3ccc(C)c23)n1 [Compound 38, N-(6-Methoxypyridin-2-yl)-5-methyl-2-(1-methyl-1H-imidazol-2-yl)pyrrolo[2,1-f][1,2,4]triazin-4-amine]	0 (0 = 0% inhibition)	0 (0% inhibition)	25 to 49	1 to 24	
COc1cccc(Nc2nc(-c3nccn3C)nn3ccc(-c4ccccc4)c23)n1 [Compound 40, N-(6-Methoxypyridin-2-yl)-2-(1-methyl-1H-imidazol-2-yl)-5-phenylpyrrolo[2,1-f][1,2,4]triazin-4-amine]	B (B = 26-45% inhibition)	0 (0% inhibition)	75 to 100	25 to 49	
Cn1ccnc1-c1nc(OCCN2CCCC2)c2c(-c3ccccc3)ccn2n1 [Compound 41, 2-(1-Methyl-1H-imidazol-2-yl)-5-phenyl-4-(2-(pyrrolidin-1-yl)ethoxy)pyrrolo[2,1-f][1,2,4]triazine]	A* (A* = 1-25% activation)	0 (0% inhibition)	1 to 24	1 to 24	
COc1cccc(-c2cn3nc(-c4nccn4C)nc(N[C@H]4C[C@H](OC)C4)c3c2-c2ccccc2)c1F [Compound 42, 6-(2-Fluoro-3-methoxyphenyl)-N-((1r,3r)-3-methoxycyclobutyl)-2-(1-methyl-1H-imidazol-2-yl)-5-phenylpyrrolo[2,1-f][1,2,4]triazin-4-amine]	0 (0 = 0% inhibition)	D (85-100% inhibition)	75 to 100	75 to 100	
COCCO[C@H]1C[C@H](Nc2nc(-c3nccn3C)nn3cc(-c4cccc(OC)c4F)c(-c4ccccc4)c23)C1 [Compound 44, 6-(2-Fluoro-3-methoxyphenyl)-N-((1r,3r)-3-(2-methoxyethoxy)cyclobutyl)-2-(1-methyl-1H-imidazol-2-yl)-5-phenylpyrrolo[2,1-f][1,2,4]triazin-4-amine]	D (D = 76-100% inhibition)	B (26-49% inhibition)	25 to 49	1 to 24	
COc1cccc(-c2cn3nc(-c4nccn4C)nc(N[C@H]4C[C@H](OC)C4)c3c2-c2ccccn2)c1F [Compound 45, 6-(2-Fluoro-3-methoxyphenyl)-N-((1r,3r)-3-methoxycyclobutyl)-2-(1-methyl-1H-imidazol-2-yl)-5-(pyridin-2-yl)pyrrolo[2,1-f][1,2,4]triazin-4-amine]	0 (0 = 0% inhibition)	0 (0% inhibition)		75 to 100	75 to 100
COc1cccc(-c2cn3nc(-c4nccn4C)nc(N[C@H]4C[C@H](OC)C4)c3c2-c2ccn(C)n2)c1F [Compound 47, 6-(2-Fluoro-3-methoxyphenyl)-N-((1r,3r)-3-methoxycyclobutyl)-2-(1-methyl-1H-imidazol-2-yl)-5-(1-methyl-1H-pyrazol-3-yl)pyrrolo[2,1-f][1,2,4]triazin-4-amine]	D (D = 76-100% inhibition)	C (50-84% inhibition)	0	1 to 24	
COc1cc(Nc2nc(-c3nccn3C)nn3cc(-c4cccnc4)c(C)c23)ncn1 [Compound 48, N-(6-Methoxypyrimidin-4-yl)-5-methyl-2-(1-methyl-1H-imidazol-2-yl)-6-(pyridin-3-yl)pyrrolo[2,1-f][1,2,4]triazin-4-amine]	B (B = 26-45% inhibition)	A (1-25% inhibition)	1 to 24	1 to 24	
COc1cc(Nc2nc(-c3nccn3C)nn3cc(-c4ccncc4)c(C)c23)ncn1 [Compound 49, N-(6-Methoxypyrimidin-4-yl)-5-methyl-2-(1-methyl-1H-imidazol-2-yl)-6-(pyridin-4-yl)pyrrolo[2,1-f][1,2,4]triazin-4-amine]	B (B = 26-45% inhibition)	B* (26-49% activation)	1 to 24	1 to 24	
COc1cc(-c2cn3nc(-c4nccn4C)nc(Nc4cc(OC)ncn4)c3c2C)ccn1 [Compound 50, 6-(2-Methoxypyridin-4-yl)-N-(6-methoxypyrimidin-4-yl)-5-methyl-2-(1-methyl-1H-imidazol-2-yl)pyrrolo[2,1-f][1,2,4]triazin-4-amine]	B (B = 26-45% inhibition)	B* (26-49% activation)	1 to 24	0	
COc1cc(Nc2nc(-c3nccn3C)nn3cc(-c4ccn(C(C)C)n4)c(C)c23)n[nH]1 [Compound 51, 6-(1-Isopropyl-1H-pyrazol-3-yl)-N-(5-methoxy-1H-pyrazol-3-yl)-5-methyl-2-(1-methyl-1H-imidazol-2-yl)pyrrolo[2,1-f][1,2,4]triazin-4-amine]	D (D = 76-100% inhibition)	0 (0% inhibition)	50 to 74	25 to 49	
Cc1c(-c2ccn(C(C)C)n2)cn2nc(-c3nccn3C)nc(Nc3ccncc3)c12 [Compound 52, 6-(1-Isopropyl-1H-pyrazol-3-yl)-5-methyl-2-(1-methyl-1H-imidazol-2-yl)-N-(pyridin-4-yl)pyrrolo[2,1-f][1,2,4]triazin-4-amine]	D (D = 76-100% inhibition)	0 (0% inhibition)	0	1 to 24	
COc1ccnc(Nc2nc(-c3nccn3C)nn3cc(-c4ccn(C(C)C)n4)c(C)c23)n1 [Compound 53, 6-(1-Isopropyl-1H-pyrazol-3-yl)-N-(4-methoxypyrimidin-2-yl)-5-methyl-2-(1-methyl-1H-imidazol-2-yl)pyrrolo[2,1-f][1,2,4]triazin-4-amine]	B (B = 26-45% inhibition)	D (85-100% inhibition)	50 to 74	1 to 24	
Cc1c(-c2ccn(C(C)C)n2)cn2nc(-c3nccn3C)nc(Nc3ncccn3)c12 [Compound 54, 6-(1-Isopropyl-1H-pyrazol-3-yl)-5-methyl-2-(1-methyl-1H-imidazol-2-yl)-N-(pyrimidin-2-yl)pyrrolo[2,1-f][1,2,4]triazin-4-amine]	A (A = 1-25% inhibition)	C (50-84% inhibition)	25 to 49	1 to 24	
Cc1c(-c2ccn(C(C)C)n2)cn2nc(-c3nccn3C)nc(Nc3ccncn3)c12 [Compound 55, 6-(1-Isopropyl-1H-pyrazol-3-yl)-5-methyl-2-(1-methyl-1H-imidazol-2-yl)-N-(pyrimidin-4-yl)pyrrolo[2,1-f][1,2,4]triazin-4-amine]	D (D = 76-100% inhibition)	A (1-25% inhibition)	1 to 24	1 to 24	
COc1cnc(Nc2nc(-c3nccn3C)nn3cc(-c4ccn(C(C)C)n4)c(C)c23)nc1 [Compound 56, 6-(1-Isopropyl-1H-pyrazol-3-yl)-N-(5-methoxypyrimidin-2-yl)-5-methyl-2-(1-methyl-1H-imidazol-2-yl)pyrrolo[2,1-f][1,2,4]triazin-4-amine]	D* (D* = 76-100% activation)	C (50-84% inhibition)	25 to 49	1 to 24	
